{"source": "patent US9140688B2", "about": "“Sperm staining and sorting methods” (INGURAN, LLC, priority 2011, dated 2015)", "key": {"[1]": {"test_system": "X- and Y-chromosome bearing bovine sperm stained with Hoechst 33342", "assay": "Split quality: height of peak divided by height of valley (PV), flow cytometry of stained bovine sperm", "format": "cell-based", "conditions": "for Height of Peak/Height of Valley: Ex 5"}, "elk sperm": {"test_system": "elk sperm", "assay": "Post thaw DNA fragmentation of elk sperm (Example 3)", "format": "cell-based", "conditions": "elk", "procedure": "(§1) Each of deer and elk were collected in the Tris-egg yolk catch fluid described as a catch media in Example 1, and shipped for sorting.\n(§2) A portion of each of the deer and the elk were stained by the red food dye No. 40 treatment 40% with 16 μL Hoechst 33342 and the yellow food dye No. 6 treatment with 14 μL Hoechst 33342 as described in Example 1.\n(§3) Samples were each bulk sorted with the same machine and parameters described in Example 1. Both sorted X and sorted Y sperm were collected into a single catch. The sorted samples were then frozen like those described in Example 1.\n(§4) Frozen thawed samples were then tested for post thaw motilities and post thaw DNA fragmentation. Post thaw motilities were slightly higher in Elk sorted with a yellow quencher, while a more significant difference existed in progressive motility. In Table 10, post thaw DNA fragmentation in Elk can be seen at about double after 48 hours when red food dye No. 40 is compared to yellow food dye No. 6 as a dead quencher."}, "deer sperm": {"test_system": "deer sperm", "assay": "Post thaw motility of bulk sorted deer sperm (Example 3)", "format": "cell-based", "conditions": "0 HR; RED TALP with 16 μL, Y6 with 14 μL Hoechst 33342", "procedure": "as §1, §2, §3, §4"}, "[2]": {"conditions": "solvent water; shorter-wavelength local maximum; cited from earlier work"}, "[3]": {"test_system": "membrane compromised bovine sperm stained with Hoechst 33342", "assay": "Dead quenching: dead gate intensity divided by live gate intensity, flow cytometry of stained bovine sperm", "format": "cell-based", "conditions": "for Dead Intensity (dead gate intensity divided by live gate intensity): Ex 5", "from_the_text": "FIG. 4 illustrates an example bivariate plot and univariate histogram of the parameters measured during sex selection by a FACS on a flow cytometer. […] Without a dead quenching dye, both populations of sperm would overlap to a large extent, with unpredictable variations in the dead sperm.\nThe entire ejaculate of sperm was suspended in first staining buffer, specifically a 7.4 pH TALP described in TABLE 1, to a concentration of 160×10^6 sperm per mL (determined on nucleocounter) and divided into three aliquots of about 20 mL into 50 mL Falcon tubes and pre-warmed for 10 minutes at 34° C. The DNA selective fluorescent dye, Hoechst 33342, was added and samples were held at 34° C. for 60 minutes. 3 different Hoechst 33342 Stain Levels were used=12 μL, 14 μL and 16 μL per 2 mL (effective concentrations of 48 μM, 56 μM, 64 μM).\nPreparation of the second buffer including the dead quenching dye—A 2 L bag of TALP, described in TABLE 1, was adjusted to pH 5.60 using HCl and then sterile filtered. […] For each of the four dyes tested (R40—red food dye No. 40, Y5—yellow food dye No. 5, Y6—yellow food dye No. 6 and PR—phenol red), an appropriate number of milligrams of each powder was placed in a Erlenmeyer Flask and then an exact amount of TALP pH 5.60 was added to create a […] concentration of the dye. The result was a working TALP stock for each dye with a 100% (125 μM) relative amount of dye 50% relative (62.5 μM) and 20% relative (25 μM) solutions were made by dilution of 100% by TALP pH 5.60.\nAfter this “bulk” staining for 60 minutes, 1 mL aliquots of stained sperm were combined with 1 mL aliquots of the second buffer including the dead quenching dyes. Samples sat for approximately 30 minutes at room temperature before being analyzed on a MoFlo SX (Beckman Coulter, USA) sperm sorting flow cytometer. Event rates were held as close to 13,000 as possible at the point of data acquisition.\nThe total number of individual treatments was 42 tubes, each containing 2 mL of stained sample. The alignment of the sorter was established using nuclei and confirmed with live sample from the 50% Red 40 series. Once good alignment was established, each tube was placed on the sorter long enough to establish a stabile dead gate population (about 30 seconds) and then a screenshot was taken and saved as a .jpeg image. This approach of rapidly documenting each sample is used to assure the most consistent alignment between all samples. Realignment of sorter will not cause differences in the intensities of live and dead gate populations but will cause differences in split quality.\nFIG. 4 illustrates an example histogram. The ratio of dead gate intensity divided by live gate intensity is created by dividing the distance “A” by the distance “B” shown as a percentage. Lower values mean higher levels of quenching. The ratio of peak height divided by valley height is created by dividing the distance “C” by the distance “D”. A value of 1.00 means “no split” while higher values mean “better splits”. […]"}, "[4]": {"conditions": "dye 62.5 μM, Hoechst 12 μL/2 mL"}, "[5]": {"conditions": "dye 62.5 μM, Hoechst 14 μL/2 mL"}, "[6]": {"conditions": "dye 62.5 μM, Hoechst 16 μL/2 mL"}, "[7]": {"conditions": "Ex 6, dye 62.5 μM, resulting pH 6.70, Hoechst 48 μM"}}}
{"smiles": "COc1cc(S(=O)(=O)O)c(C)cc1N=Nc1c(O)ccc2cc(S(=O)(=O)O)ccc12", "note": "[Red 40, 6-hydroxy-5-[(2-methoxy-5-methyl-4-sulfophenyl)azo]-2-naphthalenesulfonic acid, reference compound]", "values": [{"measurement": "Height of Peak/Height of Valley", "setting": "[1]; dye 25 μM, Average of 12 and 14 μL series", "value": 2.00}, {"measurement": "Height of Peak/Height of Valley", "setting": "[1]; dye 25 μM, Hoechst 12 μL/2 mL", "value": 2.05}, {"measurement": "Height of Peak/Height of Valley", "setting": "[1]; dye 25 μM, Hoechst 14 μL/2 mL", "value": 1.94}, {"measurement": "Height of Peak/Height of Valley", "setting": "[1]; dye 25 μM, Hoechst 16 μL/2 mL", "value": 1.00}, {"measurement": "Height of Peak/Height of Valley", "setting": "[1]; dye 62.5 μM, Average of 12 and 14 μL series", "value": 1.64}, {"measurement": "Height of Peak/Height of Valley", "setting": "[1]; [4]", "value": 1.65}, {"measurement": "Height of Peak/Height of Valley", "setting": "[1]; [5]", "value": 1.62}, {"measurement": "Height of Peak/Height of Valley", "setting": "[1]; [6]", "value": 1.00}, {"measurement": "Height of Peak/Height of Valley", "setting": "[1]; dye 125 μM, Average of 12 and 14 μL series", "value": 1.88}, {"measurement": "Height of Peak/Height of Valley", "setting": "[1]; dye 125 μM, Hoechst 12 μL/2 mL", "value": 1.75}, {"measurement": "Height of Peak/Height of Valley", "setting": "[1]; dye 125 μM, Hoechst 14 μL/2 mL", "value": 2.00}, {"measurement": "Height of Peak/Height of Valley", "setting": "[1]; dye 125 μM, Hoechst 16 μL/2 mL", "value": 1.21}, {"measurement": "PV", "setting": "[1]; [7]", "value": 1.00}, {"measurement": "PV", "setting": "[1]; Ex 8, Bull 1, Hoechst 60 μM, R40 20 μM alone", "value": 1.62}, {"measurement": "PV", "setting": "[1]; Ex 8, Bull 2, Hoechst 44 μM, R40 20 μM alone", "value": 1.54}, {"measurement": "PV", "setting": "[1]; Ex 9, Bull 3, Hoechst 60 μM, R40 50 μM, R3 0 μM", "value": 1.44}, {"measurement": "Post Thaw DNA fragmentation Elk, Post Sort", "setting": "elk sperm; 0 h", "value": 0, "unit": "%"}, {"measurement": "Post Thaw DNA fragmentation Elk, Pre-sort", "setting": "elk sperm; 0 h", "value": 2.3, "unit": "%"}, {"measurement": "Post Thaw DNA fragmentation Elk, Post Sort", "setting": "elk sperm; 24 h", "value": 0.3, "unit": "%"}, {"measurement": "Post Thaw DNA fragmentation Elk, Pre-sort", "setting": "elk sperm; 24 h", "value": 5.6, "unit": "%"}, {"measurement": "Post Thaw DNA fragmentation Elk, Post Sort", "setting": "elk sperm; 48 h", "value": 0.7, "unit": "%"}, {"measurement": "Post Thaw DNA fragmentation Elk, Pre-sort", "setting": "elk sperm; 48 h", "value": 6, "unit": "%"}, {"measurement": "Post Thaw Motility Deer, Motile", "setting": "deer sperm", "value": 59.8}, {"measurement": "Post Thaw Motility Deer, Progressive", "setting": "deer sperm", "value": 43.0}, {"measurement": "Expected Absorption Maxima", "setting": "[2]", "value": 505, "unit": "nm"}, {"measurement": "Dead Intensity (dead gate intensity divided by live gate intensity)", "setting": "[3]; dye 25 μM, Average of Hoechst levels", "value": 68, "unit": "%"}, {"measurement": "Dead Intensity (dead gate intensity divided by live gate intensity)", "setting": "[3]; dye 25 μM, Hoechst 12 μL/2 mL", "value": 68, "unit": "%"}, {"measurement": "Dead Intensity (dead gate intensity divided by live gate intensity)", "setting": "[3]; dye 25 μM, Hoechst 14 μL/2 mL", "value": 72, "unit": "%"}, {"measurement": "Dead Intensity (dead gate intensity divided by live gate intensity)", "setting": "[3]; dye 25 μM, Hoechst 16 μL/2 mL", "value": 65, "unit": "%"}, {"measurement": "Dead Intensity (dead gate intensity divided by live gate intensity)", "setting": "[3]; dye 62.5 μM, Average of Hoechst levels", "value": 52, "unit": "%"}, {"measurement": "Dead Intensity (dead gate intensity divided by live gate intensity)", "setting": "[3]; [4]", "value": 53, "unit": "%"}, {"measurement": "Dead Intensity (dead gate intensity divided by live gate intensity)", "setting": "[3]; [5]", "value": 53, "unit": "%"}, {"measurement": "Dead Intensity (dead gate intensity divided by live gate intensity)", "setting": "[3]; [6]", "value": 50, "unit": "%"}, {"measurement": "Dead Intensity (dead gate intensity divided by live gate intensity)", "setting": "[3]; dye 125 μM, Average of Hoechst levels", "value": 38, "unit": "%"}, {"measurement": "Dead Intensity (dead gate intensity divided by live gate intensity)", "setting": "[3]; dye 125 μM, Hoechst 12 μL/2 mL", "value": 37, "unit": "%"}, {"measurement": "Dead Intensity (dead gate intensity divided by live gate intensity)", "setting": "[3]; dye 125 μM, Hoechst 14 μL/2 mL", "value": 41, "unit": "%"}, {"measurement": "Dead Intensity (dead gate intensity divided by live gate intensity)", "setting": "[3]; dye 125 μM, Hoechst 16 μL/2 mL", "value": 35, "unit": "%"}, {"measurement": "Intensity (dead gate)", "setting": "[3]; [7]", "value": 53, "unit": "%"}]}
